# ChEMBL document CHEMBL1151167, “New marine sesquiterpenoids and diterpenoids from the Okinawan soft coral Clavularia koellikeri” (2004)
# Columns and labels:
# Type in all cases: functional
# NCI-H522 = assay: Cytotoxicity against human NCI-H522 cells after 48 hrs by SRB assay; settings: NCI-H522, 48 h
# LOX IMVI = assay: Cytotoxicity against human LOXIMVI cells after 48 hrs by SRB assay
# SNB-75 = assay: Cytotoxicity against human SNB75 cells after 48 hrs by SRB assay; settings: SNB-75, 48 h
# SF-539 = assay: Cytotoxicity against human SF539 cells after 48 hrs by SRB assay; settings: SF-539, 48 h
# MKN-74 = assay: Cytotoxicity against human MKN74 cells after 48 hrs by SRB assay; settings: MKN-74, 48 h
compound,measurement,setting,value
C/C1=C\CC2=CC[C@@H](C(C)C)[C@]2(C)C[C@@H](O)/C(C)=C/CC1,GI50,NCI-H522,5.2 µg/mL
same,GI50,LOX IMVI,4.9 µg/mL
same,GI50,SNB-75,4.9 µg/mL
same,GI50,SF-539,4.9 µg/mL
same,GI50,MKN-74,5.2 µg/mL
